# Legend:
# [1] = White, Amber and Yellow polymorphic forms of WAY; literature (Yeadon 1985; Xiaorong He 2000); cited from earlier work
# [2] = cocrystal compared with crystals of fluoxetine HCl
# [3] = Form I vs Form II, room temperature; Zhang et al. 2002; cited from earlier work
Compound,relative stability of the three forms [1],also measured
"CC(=O)Nc1ccc(C)cc1[N+](=O)[O-] [amber form, 4-methyl-2-nitroacetanilide]",least stable,
CNCCC(Oc1ccc(C(F)(F)F)cc1)c1ccccc1.Cl.O=C(O)c1ccccc1 (centres unmarked) [fluoxetine HCl:benzoic acid],,dissolution rate [2]: lower dissolution rate
"Cc1ccnc(NS(=O)(=O)c2ccc(N)cc2)n1 [sulfamerazine Form II, Sulfamerazine]",,relative stability of polymorphic forms [3]: most stable form at room temperature
"CC(=O)Nc1ccc(C)cc1[N+](=O)[O-] [white form, 4-methyl-2-nitroacetanilide]",most stable form,
"CC(=O)Nc1ccc(C)cc1[N+](=O)[O-] [yellow form, 4-methyl-2-nitroacetanilide]",more stable than the amber form,

# Reference: patent publication US8920559B2, “Screening for solid forms by ultrasound crystallization and cocrystallization using ultrasound” (Aptuit (West Lafayette), LLC, priority 2004, dated 2014)
